Experimental data as given in patent US9655990B2, “Polymer based hydrogel” (YEDITEPE UNIVERSITESI, priority 2013, dated 2017).

Legend:
malondialdehyde = assay: Malondialdehyde (MDA) level in treated cells; format: cell-based; settings: in comparison to the control group
Procedure: (§1) Antioxidant parameters were determined by glutathione peroxidase and superoxide dismutase enzyme activity assay and analysis of the MDA (malondialdehyde) levels. The cells which were subjected to the gel combination, to the active agent and only to the medium for control purposes in 6-well culture plates were collected and protein isolation was performed from the cell pellet by determined by measuring absorbance and drawing a standard curve at 595 nm wavelength with Bradford solution in 96-well ELISA plates by using bovine albumin protein standards (0.125, 0.25, 0.5, 0.75, 1.0, 1.5, 2.0 mg/ml). The enzyme activity assays and MDA levels were determined such that they wilt comply with the protocols given in commercials kits (FIG. 9).

L929 (Mouse Fibroblast) = assay: In vitro wound healing scratch assay, L929 cells; format: cell-based
Procedure: (§2) In order to determine the effect of the gel on wound healing, its capacity for cell migration and wound closure was analyzed by using the scratch assay described in the literature (Walter et al. 2010). […] The cells were seeded onto 12 well culture plates at a concentration of 100,000 cells/well, and by storing them in a carbon dioxide incubator so that they were enabled to attach and reach the sufficient density. Scratches were formed by using 200 μl pipette tip such that they will be perpendicular to the horizontal lines drawn by an acetate pen from the center of the wells to the outside of the wells. Gel combination was applied on the cells and scratch closure was observed. Setrach closure (FIG. 6-7) was analyzed by using NIH Image program upon photographing the regions of the straches which correspond to the lines drawn by an acetate pen and which are in the field of view of the microscope at 0, 12 and 24 hours.

Bax and p53 genes = assay: Real time PCR, apoptotic gene levels; format: cell-based
Procedure: (§3) Real time PCR (Polymerase Chain Reaction) analyses were performed according to the literature by using SYBR Green method (Yalvac et al, 2010). The primers belonging to the collagen, fibronectin, laminin, Akt, Bax and P53 genes were designed using Primer BLAST software (The National Center for Biotechnology=NCBI). Total RNAs were isolated from the cells on which gel combination was applied and cDNA was synthesized. The synthesized cDNAs were mixed with primers in SYBR Green mix solution such that the final volume will be 20 μl and the expression levels of the genes (FIG. 8) were analyzed by using BIO-RAD device.

glutathione peroxidase = assay: Glutathione peroxidase enzyme activity assay in treated cells; format: cell-based; settings: in comparison to the control group
Procedure: as §1

HF (Human Fibroblast) = assay: In vitro wound healing scratch assay, human fibroblast cells; format: cell-based
Procedure: as §2

superoxide dismutase = assay: Superoxide dismutase enzyme activity assay in treated cells; format: cell-based; settings: determined indirectly
Procedure: as §1

Akt gene = assay: Real time PCR, Akt gene level; format: cell-based
Procedure: as §3

L929-HUVEC co-culture = assay: In vitro wound healing scratch assay, L929-HUVEC co-culture; format: cell-based
Procedure: as §2

With sodium pentaborate pentahydrate the malondialdehyde levels (malondialdehyde) was “low MDA levels”, the karyotype (human fibroblast cells) was “maintained their normal karyotypes” and the wound closure (L929 (Mouse Fibroblast); 12 hours) was 71%. The wound closure rate (L929 (Mouse Fibroblast); 24 hours) was 84%, the “apoptotic gene levels (Bax, p53)” value (Bax and p53 genes) was “decreased” and the “glutathione peroxidase enzyme activity” value (glutathione peroxidase) was “substantial amount of enzyme activity”. The wound closure rate (HF (Human Fibroblast); 12 hours) was 58%, the wound closure rate (HF (Human Fibroblast); 24 hours) was 91% and the “superoxide dismutase enzyme activity” value (superoxide dismutase) was “high level of enzyme activity”. The akt gene levels (Akt gene) was “decreased”, the wound closure rate (L929-HUVEC co-culture; 12 hours) was 59% and the wound closure rate (L929-HUVEC co-culture; 24 hours) was 100%.
